Results published in patent US20080009418A1, “Selective Inhibitors” (Alchemia LTD., priority 2004, published 2008).

Tests used:
[1] = biological target: T1, Human δ-opioid (DOP) (Homo sapiens, UniProt P41143); assay: Radioligand binding, human δ-opioid (DOP) membranes, FlashPlate, [3H]-Bremazocine; conditions: compound at 10 μM; for A1: inhibition of radioligand binding, human δ-opioid (DOP): [3H]-Bremazocine
T1 construct: purchased Perkin Elmer Biosignal
Method in brief: (§1)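 Cloned human receptor membranes were coated onto FlashPlate wells and incubated with radioligand and compound (added from a 0.5 mM DMSO daughter plate) for 1 hour at room temperature in the dark. Scintillation counting gave percent inhibition, with DMSO defining total and reference ligand defining non-specific binding.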

[2] = biological target: T2, Human κ-Opioid (KOP) (Homo sapiens, UniProt P41145); assay: Radioligand binding, human κ-opioid (KOP) membranes, filtration, [3H]-Diprenorphine; conditions: compound at 10 μM; for A2: inhibition of radioligand binding, human κ-opioid (KOP): [3H]-Diprenorphine
T2 construct: purchased Perkin Elmer Biosignal
Method in brief: (§2)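 Membranes from cloned human receptors were incubated with compound and radioligand for 1 hour at room temperature. Bound ligand was collected on 0.3% PEI-soaked filters, washed with cold 50 mM Tris-HCl pH 7.4, and counted by scintillation. Percent inhibition was computed against DMSO totals and reference-ligand nonspecific wells.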

[3] = biological target: T3, Human Melanocortin (MC3) (Homo sapiens, UniProt P41968); assay: Radioligand binding, human melanocortin MC3 membranes, FlashPlate, [125I]-NDP-αMSH; conditions: compound at 10 μM; for A3: inhibition of radioligand binding, human melanocortin (MC3): [125I]-NDP-αMSH
T3 construct: purchased Perkin Elmer Biosignal
Method in brief: as §1

[4] = biological target: T4, Human Melanocortin (MC4) (Homo sapiens, UniProt P32245); assay: Radioligand binding, human melanocortin MC4 membranes, FlashPlate, [125I]-NDP-αMSH; conditions: compound at 10 μM; for A4: inhibition of radioligand binding, human melanocortin (MC4): [125I]-NDP-αMSH
T4 construct: purchased Perkin Elmer Biosignal
Method in brief: as §1

[5] = biological target: T5, Human melanocortin (MC5) (Homo sapiens, UniProt P33032); assay: Radioligand binding, human melanocortin MC5 membranes, FlashPlate, [125I]-NDP-αMSH; conditions: compound at 10 μM; for A5: inhibition of radioligand binding, human melanocortin (MC5): [125I]-NDP-αMSH
T5 construct: purchased Perkin Elmer Biosignal
Method in brief: as §1

[6] = biological target: T6, Human melanin-concentrating hormone (MCH1) (Homo sapiens, UniProt Q99705); assay: Radioligand binding, human melanin-concentrating hormone MCH1 membranes, FlashPlate, [125I]-S36057; conditions: compound at 10 μM; for A6: inhibition of radioligand binding, human melanin-concentrating hormone (MCH1): [125I]-S36057
T6 construct: purchased Perkin Elmer Biosignal
Method in brief: as §1

[7] = biological target: T7, Human μ-opioid (MOP) (Homo sapiens, UniProt P35372); assay: Radioligand binding, human μ-opioid (MOP) membranes, FlashPlate, [3H]-Naloxone; conditions: compound at 10 μM; for A7: inhibition of radioligand binding, human μ-opioid (MOP): [3H]-Naloxone
T7 construct: purchased Perkin Elmer Biosignal
Method in brief: as §1

[8] = biological target: T8, Human neurokinin (NK1) (Homo sapiens, UniProt P25103); assay: Radioligand binding, human neurokinin NK1 membranes, filtration, [125I]-Substance P; conditions: compound at 10 μM; for A8: inhibition of radioligand binding, human neurokinin (NK1): [125I]-Substance P
T8 construct: purchased Perkin Elmer Biosignal
Method in brief: as §2

[9] = biological target: T9, Human neuropeptide Y (NPY-Y1) (Homo sapiens, UniProt P25929); assay: Radioligand binding, human neuropeptide Y NPY-Y1 membranes, FlashPlate, [125I]-PYY; conditions: compound at 10 μM; for A9: inhibition of radioligand binding, human neuropeptide Y (NPY-Y1): [125I]-PYY
T9 construct: purchased Perkin Elmer Biosignal
T9 sequence (P25929 1-384): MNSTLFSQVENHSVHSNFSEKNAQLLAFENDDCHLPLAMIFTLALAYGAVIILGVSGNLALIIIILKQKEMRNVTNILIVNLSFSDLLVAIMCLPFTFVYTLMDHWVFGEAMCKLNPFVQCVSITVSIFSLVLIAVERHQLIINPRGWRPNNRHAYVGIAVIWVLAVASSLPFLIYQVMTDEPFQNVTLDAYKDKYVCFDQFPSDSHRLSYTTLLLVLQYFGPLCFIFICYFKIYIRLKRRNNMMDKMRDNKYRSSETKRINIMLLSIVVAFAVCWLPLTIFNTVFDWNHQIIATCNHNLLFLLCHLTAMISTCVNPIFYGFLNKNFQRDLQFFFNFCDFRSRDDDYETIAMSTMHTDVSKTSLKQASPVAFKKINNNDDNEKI
Method in brief: as §1

[10] = biological target: T10, Human opioid (ORL1) (Homo sapiens, UniProt P41146); assay: Radioligand binding, human opioid ORL1 membranes, FlashPlate, [125I]-Nociceptin; conditions: compound at 10 μM; for A10: inhibition of radioligand binding, human opioid (ORL1): [125I]-Nociceptin
T10 construct: purchased Perkin Elmer Biosignal
Method in brief: as §1

[11] = biological target: T11, Mouse urotensin (mUR2) (Mus musculus, UniProt Q8VIH9); assay: Radioligand binding, mouse urotensin mUR2 membranes, FlashPlate, [125I]-Urotensin II; conditions: compound at 10 μM; for A11: inhibition of radioligand binding, mouse urotensin (mUR2): [125I]-Urotensin II
T11 construct: purchased Perkin Elmer Biosignal
T11 sequence (Q8VIH9 1-385): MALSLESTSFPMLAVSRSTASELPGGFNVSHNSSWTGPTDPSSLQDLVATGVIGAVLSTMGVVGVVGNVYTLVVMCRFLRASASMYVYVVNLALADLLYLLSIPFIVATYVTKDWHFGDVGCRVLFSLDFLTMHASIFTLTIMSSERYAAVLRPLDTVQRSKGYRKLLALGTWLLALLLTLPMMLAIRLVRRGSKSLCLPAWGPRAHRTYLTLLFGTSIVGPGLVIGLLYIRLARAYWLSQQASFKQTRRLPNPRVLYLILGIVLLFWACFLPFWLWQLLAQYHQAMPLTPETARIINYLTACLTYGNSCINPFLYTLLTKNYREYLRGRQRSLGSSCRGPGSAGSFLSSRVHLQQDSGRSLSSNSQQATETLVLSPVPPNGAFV
Method in brief: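 Cloned mouse urotensin (mUR2) receptor membranes from Perkin Elmer Biosignal were immobilized in FlashPlate microplates using a proprietary coating. Each well got 19.5 μl buffer, then 0.5 μl of DMSO, reference ligand, or compound. Adding 5 μl of [125I]-Urotensin II, diluted to 5× final concentration in binding buffer, started binding. Plates were sealed with TopSeal-A and incubated 1 hour at room temperature in the dark. Wells were counted for 30 seconds each on a TopCount after a 60-second delay, and percentage inhibition was calculated.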

T5 sequence (P33032 whole entry): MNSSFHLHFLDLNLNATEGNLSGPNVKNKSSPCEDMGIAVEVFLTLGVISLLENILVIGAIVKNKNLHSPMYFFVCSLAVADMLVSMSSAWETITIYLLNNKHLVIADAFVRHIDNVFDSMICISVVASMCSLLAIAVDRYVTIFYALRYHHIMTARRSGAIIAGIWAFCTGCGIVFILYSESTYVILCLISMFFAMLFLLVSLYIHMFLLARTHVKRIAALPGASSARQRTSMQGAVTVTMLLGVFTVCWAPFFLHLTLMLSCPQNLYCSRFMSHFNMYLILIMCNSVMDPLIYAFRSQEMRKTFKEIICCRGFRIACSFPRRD
T1 sequence (P41143 whole entry): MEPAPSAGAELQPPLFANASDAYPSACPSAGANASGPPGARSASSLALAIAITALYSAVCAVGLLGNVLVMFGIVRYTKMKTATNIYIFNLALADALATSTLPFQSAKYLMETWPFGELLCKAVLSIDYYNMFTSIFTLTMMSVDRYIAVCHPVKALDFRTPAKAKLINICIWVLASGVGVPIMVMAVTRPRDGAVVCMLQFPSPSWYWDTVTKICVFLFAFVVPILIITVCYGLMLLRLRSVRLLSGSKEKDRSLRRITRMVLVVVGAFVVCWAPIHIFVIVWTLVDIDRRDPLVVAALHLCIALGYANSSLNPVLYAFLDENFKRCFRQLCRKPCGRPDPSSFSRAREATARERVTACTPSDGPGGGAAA
T6 sequence (Q99705 whole entry): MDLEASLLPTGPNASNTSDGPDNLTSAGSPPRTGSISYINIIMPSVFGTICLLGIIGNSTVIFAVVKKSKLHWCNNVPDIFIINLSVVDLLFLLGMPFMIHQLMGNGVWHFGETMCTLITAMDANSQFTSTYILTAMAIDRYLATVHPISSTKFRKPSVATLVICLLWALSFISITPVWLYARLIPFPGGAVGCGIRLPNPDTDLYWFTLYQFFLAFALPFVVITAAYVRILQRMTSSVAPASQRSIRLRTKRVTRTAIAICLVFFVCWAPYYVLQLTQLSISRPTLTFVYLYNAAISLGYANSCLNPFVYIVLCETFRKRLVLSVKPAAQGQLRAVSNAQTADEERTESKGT
T4 sequence (P32245 whole entry): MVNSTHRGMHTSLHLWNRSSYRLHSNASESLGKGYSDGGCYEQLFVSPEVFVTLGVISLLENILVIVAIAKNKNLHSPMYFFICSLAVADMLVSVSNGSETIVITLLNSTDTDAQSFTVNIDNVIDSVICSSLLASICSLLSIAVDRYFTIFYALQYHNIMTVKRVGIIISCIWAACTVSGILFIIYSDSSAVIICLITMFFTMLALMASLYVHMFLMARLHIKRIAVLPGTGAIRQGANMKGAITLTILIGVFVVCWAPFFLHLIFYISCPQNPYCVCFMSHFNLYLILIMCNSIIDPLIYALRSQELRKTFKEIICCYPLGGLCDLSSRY
T3 sequence (P41968 whole entry): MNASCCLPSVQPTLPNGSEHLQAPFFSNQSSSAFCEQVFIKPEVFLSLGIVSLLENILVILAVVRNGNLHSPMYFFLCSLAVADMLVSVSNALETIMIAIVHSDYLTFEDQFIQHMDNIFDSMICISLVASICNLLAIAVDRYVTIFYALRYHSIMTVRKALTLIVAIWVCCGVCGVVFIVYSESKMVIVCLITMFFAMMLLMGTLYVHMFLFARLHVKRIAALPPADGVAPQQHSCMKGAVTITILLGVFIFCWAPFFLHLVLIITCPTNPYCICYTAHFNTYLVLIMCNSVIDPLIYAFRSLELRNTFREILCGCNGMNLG
T2 sequence (P41145 whole entry): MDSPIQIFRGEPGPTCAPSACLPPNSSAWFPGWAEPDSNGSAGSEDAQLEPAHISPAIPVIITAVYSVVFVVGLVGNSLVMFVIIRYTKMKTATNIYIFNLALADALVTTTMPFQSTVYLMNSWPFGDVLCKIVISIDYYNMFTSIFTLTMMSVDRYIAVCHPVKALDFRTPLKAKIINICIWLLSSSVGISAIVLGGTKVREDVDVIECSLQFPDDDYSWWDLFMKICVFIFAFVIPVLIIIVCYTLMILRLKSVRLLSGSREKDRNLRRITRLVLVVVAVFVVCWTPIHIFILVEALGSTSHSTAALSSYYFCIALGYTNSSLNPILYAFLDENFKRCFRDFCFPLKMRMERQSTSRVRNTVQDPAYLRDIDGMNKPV
T10 sequence (P41146 whole entry): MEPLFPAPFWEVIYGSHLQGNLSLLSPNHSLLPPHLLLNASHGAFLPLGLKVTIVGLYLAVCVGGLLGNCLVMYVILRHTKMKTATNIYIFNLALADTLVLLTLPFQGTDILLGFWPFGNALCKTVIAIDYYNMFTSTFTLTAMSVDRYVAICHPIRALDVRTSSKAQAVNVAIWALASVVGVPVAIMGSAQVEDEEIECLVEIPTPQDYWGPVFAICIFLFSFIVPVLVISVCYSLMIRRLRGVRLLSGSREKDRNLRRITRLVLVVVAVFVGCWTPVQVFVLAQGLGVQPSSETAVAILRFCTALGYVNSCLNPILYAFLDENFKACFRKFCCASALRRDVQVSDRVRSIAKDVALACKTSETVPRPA
T8 sequence (P25103 whole entry): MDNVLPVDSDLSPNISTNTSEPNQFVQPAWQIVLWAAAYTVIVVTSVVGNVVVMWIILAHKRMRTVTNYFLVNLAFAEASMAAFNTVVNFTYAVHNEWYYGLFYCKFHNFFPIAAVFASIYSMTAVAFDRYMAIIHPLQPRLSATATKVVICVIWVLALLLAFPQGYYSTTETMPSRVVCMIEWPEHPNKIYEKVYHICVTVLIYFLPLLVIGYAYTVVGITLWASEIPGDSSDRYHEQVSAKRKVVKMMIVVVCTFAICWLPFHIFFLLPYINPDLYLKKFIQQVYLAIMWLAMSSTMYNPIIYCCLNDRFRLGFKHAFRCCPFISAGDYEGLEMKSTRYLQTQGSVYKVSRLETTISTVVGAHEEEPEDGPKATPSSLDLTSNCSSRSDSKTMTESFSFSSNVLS
T7 sequence (P35372 whole entry): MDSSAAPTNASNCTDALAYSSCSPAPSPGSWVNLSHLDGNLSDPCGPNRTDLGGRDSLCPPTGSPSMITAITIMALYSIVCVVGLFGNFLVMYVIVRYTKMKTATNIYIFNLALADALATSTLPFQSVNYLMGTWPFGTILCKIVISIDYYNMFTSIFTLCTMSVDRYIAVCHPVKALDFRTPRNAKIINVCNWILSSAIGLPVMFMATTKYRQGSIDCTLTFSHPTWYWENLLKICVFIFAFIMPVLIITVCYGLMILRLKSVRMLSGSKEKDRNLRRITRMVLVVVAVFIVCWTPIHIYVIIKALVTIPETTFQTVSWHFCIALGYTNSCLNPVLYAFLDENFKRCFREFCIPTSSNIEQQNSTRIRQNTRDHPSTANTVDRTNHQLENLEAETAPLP

SMILES	A2: inhibition of radioligand binding, human κ-opioid (KOP) [2]	A3: inhibition of radioligand binding, human melanocortin (MC3) [3]	A4: inhibition of radioligand binding, human melanocortin (MC4) [4]	A5: inhibition of radioligand binding, human melanocortin (MC5) [5]	A6: inhibition of radioligand binding, human melanin-concentrating hormone (MCH1) [6]	A8: inhibition of radioligand binding, human neurokinin (NK1) [8]	A9: inhibition of radioligand binding, human neuropeptide Y (NPY-Y1) [9]	A10: inhibition of radioligand binding, human opioid (ORL1) [10]	A11: inhibition of radioligand binding, mouse urotensin (mUR2) [11]	A1: inhibition of radioligand binding, human δ-opioid (DOP) [1]	A7: inhibition of radioligand binding, human μ-opioid (MOP) [7]	further results
N=C(N)NCCC(=O)N[C@H]1C(OCc2ccc(Cl)cc2)O[C@H](COCc2ccccc2)[C@@H](O)[C@@H]1OCc1ccc(-c2ccccc2)cc1 (stereo partly shown) [compound 535]	+ (“+” indicates greater than 50% inhibition at 10 μM)	+ (“+” indicates greater than 50% inhibition at 10 μM)	+ (“+” indicates greater than 50% inhibition at 10 μM)	+ (“+” indicates greater than 50% inhibition at 10 μM)	+ (“+” indicates greater than 50% inhibition at 10 μM)	+ (“+” indicates greater than 50% inhibition at 10 μM)	− (“−” indicates less than 50% inhibition at 10 μM)	− (“−” indicates less than 50% inhibition at 10 μM)	− (“−” indicates less than 50% inhibition at 10 μM)			A1: inhibition of radioligand binding, human δ-opioid (DOP) ([1]; 10 µM): + (“+” indicates greater than 50% inhibition at 10 μM); A7: inhibition of radioligand binding, human μ-opioid (MOP) ([7]; 10 µM): + (“+” indicates greater than 50% inhibition at 10 μM)
NCC(=O)NC1O[C@H](CO)[C@@H](O)[C@H](OCc2ccccc2)[C@H]1NC(=O)c1ccccc1 (stereo partly shown) [compound 360]	− (“−” indicates less than 50% inhibition at 10 μM)	− (“−” indicates less than 50% inhibition at 10 μM)	+ (“+” indicates greater than 50% inhibition at 10 μM)	− (“−” indicates less than 50% inhibition at 10 μM)	− (“−” indicates less than 50% inhibition at 10 μM)	− (“−” indicates less than 50% inhibition at 10 μM)	− (“−” indicates less than 50% inhibition at 10 μM)	− (“−” indicates less than 50% inhibition at 10 μM)	− (“−” indicates less than 50% inhibition at 10 μM)	− (“−” indicates less than 50% inhibition at 10 μM)	− (“−” indicates less than 50% inhibition at 10 μM)	
CSC1OC(COCc2cccc(N)c2)C(O)C(OCc2ccc(Cl)cc2)C1NC(=O)Cc1ccccc1 (stereo not shown) [compound 328]	− (“−” indicates less than 50% inhibition at 10 μM)	− (“−” indicates less than 50% inhibition at 10 μM)	− (“−” indicates less than 50% inhibition at 10 μM)	− (“−” indicates less than 50% inhibition at 10 μM)	− (“−” indicates less than 50% inhibition at 10 μM)	+ (“+” indicates greater than 50% inhibition at 10 μM)	− (“−” indicates less than 50% inhibition at 10 μM)	− (“−” indicates less than 50% inhibition at 10 μM)	− (“−” indicates less than 50% inhibition at 10 μM)	− (“−” indicates less than 50% inhibition at 10 μM)	− (“−” indicates less than 50% inhibition at 10 μM)	
COC[C@H]1OC(OCCc2ccccc2)[C@H](NC(=O)CCNC(=N)N)[C@@H](OCc2ccc(-c3ccccc3)cc2)[C@@H]1O (stereo partly shown) [compound 41]												A1 radioligand binding inhibition ([1]; human δ-opioid (DOP) membranes): − (“−” indicates less than 50% inhibition at 10 μM); A2 radioligand binding inhibition ([2]; human κ-opioid (KOP) membranes): − (“−” indicates less than 50% inhibition at 10 μM); A3 radioligand binding inhibition ([3]; human melanocortin MC3 membranes): − (“−” indicates less than 50% inhibition at 10 μM); A4 radioligand binding inhibition ([4]; human melanocortin MC4 membranes): + (“+” indicates greater than 50% inhibition at 10 μM); A5 radioligand binding inhibition ([5]; human melanocortin MC5 membranes): + (“+” indicates greater than 50% inhibition at 10 μM); A6 radioligand binding inhibition ([6]; human MCH1 membranes): + (“+” indicates greater than 50% inhibition at 10 μM); A7 radioligand binding inhibition ([7]; human μ-opioid (MOP) membranes): − (“−” indicates less than 50% inhibition at 10 μM); A8 radioligand binding inhibition ([8]; human neurokinin NK1 membranes): + (“+” indicates greater than 50% inhibition at 10 μM); A9 radioligand binding inhibition ([9]; human NPY-Y1 membranes): − (“−” indicates less than 50% inhibition at 10 μM); A10 radioligand binding inhibition ([10]; human ORL1 membranes): − (“−” indicates less than 50% inhibition at 10 μM); A11 radioligand binding inhibition ([11]; mouse urotensin mUR2 membranes): − (“−” indicates less than 50% inhibition at 10 μM)
N=C(N)NCC(=O)N[C@H]1C(OCc2ccc(Cl)cc2)O[C@H](COCc2ccc(Cl)cc2)[C@@H](O)[C@@H]1OCc1ccc2ccccc2c1 (stereo partly shown) [compound 516]	− (“−” indicates less than 50% inhibition at 10 μM)	+ (“+” indicates greater than 50% inhibition at 10 μM)	+ (“+” indicates greater than 50% inhibition at 10 μM)	+ (“+” indicates greater than 50% inhibition at 10 μM)	+ (“+” indicates greater than 50% inhibition at 10 μM)	+ (“+” indicates greater than 50% inhibition at 10 μM)	− (“−” indicates less than 50% inhibition at 10 μM)		− (“−” indicates less than 50% inhibition at 10 μM)	− (“−” indicates less than 50% inhibition at 10 μM)	− (“−” indicates less than 50% inhibition at 10 μM)	A10: inhibition of radioligand binding, human opioid (ORL1) ([10]; 10 µM): − (“−” indicates less than 50% inhibition at 10 μM)
